Patent US5063045A, “Method for evaluating antiallergic substances” (Nippon Zoki Pharmaceutical Co., Ltd., priority 1989, dated 1991)
Counter-ions that a name gives are not always drawn.

What was measured:
[1] = test system: passively sensitized SART stressed guinea pigs; experiment: Nasal secretion (dyed thread length) after nasal provocation with ovalbumin in passively sensitized SART stressed guinea pigs; type: in vivo, guinea pig (male Hartley strain); settings: for Inhibition: inhibition of nasal secretion vs control
Method: Male Hartley strain guinea pigs weighing 300 to 500 g were used. The threshold of nasal mucosal sensitivity to methacholine of these animals was previously measured with a nasal thread dyed with fluorescein, and those guinea pigs having normal sensitivity were divided into groups of 7 or 8 animals making the average of the threshold of sensitivity substantially equal in each group. To load SART stress, the guinea pigs were kept in a thermostatic box at the environmental temperature of 0° C. and 24° C. alternately for one hour period from 10:00 a.m. to 5:00 p.m., and at 0° C. from 5:00 p.m. to 10:00 a.m. the next day. This stress loading was continued for 5 days prior to sensitization. The stress-loaded guinea pigs from the previous example were sensitized intraperitoneally using 20 μg of ovalbumin and 10 mg of aluminum hydroxide (adjuvant) in 1 ml of saline 7 times every 2 weeks. After 2 weeks of the sensitization, airway sensitization was performed by ultranebulization with 3 ml of 0.1% ovalbumin in saline for 5 consecutive days. One week later, nasal provocation was performed by application of 50 μl of 1% ovalbumin in saline on both anterior nares, and antiserum was collecting from guinea pigs showing typical nasal symptoms of nasal allergy such as sneeze, nasal secretion and asthma. This anti-ovalbumin serum was preserved at -80° C. The provocation was made by application of 50 μl of 1% ovalbumin on the left anterior naris 2 days after passive sensitization by intraperitoneally injecting 2 ml of diluted anti-ovalbumin serum from the previous example (diluted ratio;×1/8). […] Defatted cotton threads (No. 40/2) were dyed with 10% fluorescein-Na in physiological saline at one end, and were cut to a total length of 100 mm with the colored end 10 mm in length. About 15 mm of the colored end of the thread was inserted into the left anterior naris of the guinea pigs for 60 sec. The length of thread dyed with fluorescein due to nasal secretion was taken as a measure of the amount of nasal secretion. (A few threads can be used together when the amount of nasal secretion is large). […] The amount of nasal secretion was measured by the length of the colored portion of the thread dyed with fluorescein.

[2] = test system: actively sensitized guinea pigs; experiment: Nasal secretion on repeated nasal provocations with ovalbumin in actively sensitized guinea pigs; type: in vivo, guinea pig; settings: 1.0 mg/kg/day p.o.
Method: Active sensitization was carried out in a manner similar to the preparation of anti-ovalbumin serum mentioned above. Namely, 1 μg ovalbumin and 5 mg of aluminum hydroxide (adjuvant) in 1 ml of saline were injected into guinea pigs intraperitoneally 6 times every 2 weeks.
Two weeks after the active sensitization with ovalbumin, 50 μl of 1% ovalbumin in saline was administered into both anterior nares to start nasal provocation with allergen. Then the nasal provocations with ovalbumin were repeated 1, 4, 7, 10 and 13 days after the first provocation.
Defatted cotton threads (No. 40/2) were dyed with 10% fluorescein-Na in physiological saline at one end, and were cut to a total length of 100 mm with the colored end 10 mm in length. About 15 mm of the colored end of the thread was inserted into the left anterior naris of the guinea pigs for 60 sec. The length of thread dyed with fluorescein due to nasal secretion was taken as a measure of the amount of nasal secretion. (A few threads can be used together when the amount of nasal secretion is large).
Enhanced nasal mucosal sensitivity was measured by using animals obtained by repeated nasal provocations with ovalbumin in actively sensitized guinea pigs with the allergen according to the method of Examples 4, 5 and 6. The inhibitory action for nasal secretion of Ketotifen fumarate (1.0 mg/kg/day, p.o.) was also measured using this assay system.

[3] = Ketotifen fumarate 0.3 mg/kg/day p.o.
[4] = Ketotifen fumarate 1.0 mg/kg/day p.o.
[5] = Ketotifen fumarate 3.0 mg/kg/day p.o.

CN1CCC(=C2c3ccccc3CC(=O)c3sccc32)CC1 [Ketotifen, Ketotifen fumarate]
Nasal secretion [1, 3]: 33.5 mm
Nasal secretion [1, 4]: 23.9 mm
Nasal secretion [1, 5]: 16.1 mm
Inhibition [1, 3]: 25.5%
Inhibition [1, 4]: 46.9%
Inhibition [1, 5]: 64.2%
Nasal secretion ([2]; 1st provocation with allergen): 68.9 mm
Nasal secretion ([2]; 2nd provocation with allergen (1 day)): 54.1 mm
Nasal secretion ([2]; 3rd provocation with allergen (4 days)): 73.0 mm
Nasal secretion ([2]; 4th provocation with allergen (7 days)): 68.5 mm
Nasal secretion ([2]; 5th provocation with allergen (10 days)): 77.3 mm
Nasal secretion ([2]; 6th provocation with allergen (13 days)): 96.9 mm
